What was measured:
[1] = system: Human immunodeficiency virus 1; test: Antiviral activity against HIV-1 NLRep-Rluc infected in human MT2 cells assessed as inhibition of viral growth incubated for 96 hrs by renilla luciferase assay; type: functional, organism-based
[2] = Clearance in Sprague-Dawley rat at 1 mg/kg, iv and measured upto 96 hrs by LC-MS/MS analysis; type: ADME, organism-based; conditions: in vivo
MT2 = test: Cytotoxicity against human MT2 cells assessed as reduction in cell viability incubated for 4 days by XTT assay; type: toxicity, cell-based; conditions: mt2, 96 h, 96 h, time 4 day
[3] = Human immunodeficiency virus 1, NLRep-Rluc, MT2, 96 h

Row | SMILES | EC50 [1, 3] [nM] | clearance [2] [mL/min/kg] | EC50 ([1]; mt2) [nM] | CC50 (MT2) [nM]
1 | Cn1nc(NS(C)(=O)=O)c2c(Cl)ccc(-n3c([C@H](Cc4cc(F)cc(F)c4)NC(=O)Cn4nc(C(F)F)c5c4C(F)(F)[C@@H]4C[C@H]54)nc4cc(C(C)(C)O)ccc4c3=O)c21 | 0.15 | 26 | – | –
2 | Cn1nc(NS(C)(=O)=O)c2c(Cl)ccc(-n3c([C@H](Cc4cc(F)cc(F)c4)NC(=O)Cn4nc(C(F)F)c5c4C(F)(F)[C@@H]4C[C@H]54)nc4cc(N5CCS(=O)(=O)CC5)ccc4c3=O)c21 | 0.47 | – | – | –
3 | Cn1nc(NS(C)(=O)=O)c2c(Cl)ccc(-n3c([C@H](Cc4cc(F)cc(F)c4)NC(=O)Cn4nc(C(F)F)c5c4C(F)(F)[C@@H]4C[C@H]54)nc4ccc(F)cc4c3=O)c21 | 0.045 | 29 | – | –
4 | Cn1nc(NS(C)(=O)=O)c2c(Cl)ccc(-n3c([C@H](Cc4cc(F)cc(F)c4)NC(=O)Cn4nc(C(F)F)c5c4C(F)(F)[C@@H]4C[C@H]54)nc4cc(N5CCO[C@@H](C(F)(F)F)C5)ccc4c3=O)c21 | 0.081 | – | – | –
5 | Cn1nc(NS(C)(=O)=O)c2c(Cl)ccc(-n3c([C@H](Cc4cc(F)cc(F)c4)NC(=O)Cn4nc(C(F)F)c5c4C(F)(F)[C@@H]4C[C@H]54)nc4ccccc4c3=O)c21 (stereo in doubt; 13a) | – | – | 81 | > 1000
6 | COc1cc(OC)c2c(=O)n(-c3ccc(Cl)c4c(NS(C)(=O)=O)nn(C)c34)c([C@H](Cc3cc(F)cc(F)c3)NC(=O)Cn3nc(C(F)F)c4c3C(F)(F)[C@@H]3C[C@H]43)nc2c1 | 0.064 | 65 | – | –
7 | Cn1nc(NS(C)(=O)=O)c2c(Cl)ccc(-n3c([C@H](Cc4cc(F)cc(F)c4)NC(=O)Cn4nc(C(F)F)c5c4C(F)(F)[C@@H]4C[C@H]54)nc4cc(N5CC(C)(C)OC(C)(C)C5)ccc4c3=O)c21 | 0.12 | – | – | –
8 | Cn1nc(NS(C)(=O)=O)c2c(Cl)ccc(-n3c([C@H](Cc4cc(F)cc(F)c4)NC(=O)Cn4nc(C(F)F)c5c4C(F)(F)[C@@H]4C[C@H]54)nc4cccc(F)c4c3=O)c21 | 0.13 | – | – | –
9 | Cn1nc(NS(C)(=O)=O)c2c(Cl)ccc(-n3c([C@H](Cc4cc(F)cc(F)c4)NC(=O)Cn4nc(C(F)F)c5c4C(F)(F)[C@@H]4C[C@H]54)nc4cc(Br)ccc4c3=O)c21 | 0.053 | – | – | –
10 | Cn1nc(NS(C)(=O)=O)c2c(Cl)ccc(-n3c([C@H](Cc4cc(F)cc(F)c4)NC(=O)Cn4nc(C(F)F)c5c4C(F)(F)[C@@H]4C[C@H]54)nc4cc(N5CCOCC5=O)ccc4c3=O)c21 | 0.11 | – | – | –
11 | COc1cccc2c(=O)n(-c3ccc(Cl)c4c(NS(C)(=O)=O)nn(C)c34)c([C@H](Cc3cc(F)cc(F)c3)NC(=O)Cn3nc(C(F)F)c4c3C(F)(F)[C@@H]3C[C@H]43)nc12 | 0.095 | – | – | –
12 | Cn1nc(NS(C)(=O)=O)c2c(Cl)ccc(-n3c([C@H](Cc4cc(F)cc(F)c4)NC(=O)Cn4nc(C(F)F)c5c4C(F)(F)[C@@H]4C[C@H]54)nc4cc(N5CCOC(C)(C)C5)ccc4c3=O)c21 | 0.05 | 9.6 | – | –
13 | Cn1nc(NS(C)(=O)=O)c2c(Cl)ccc(-n3c([C@H](Cc4cc(F)cc(F)c4)NC(=O)Cn4nc(C(F)F)c5c4C(F)(F)[C@@H]4C[C@H]54)nc4cc(N5CCC6(CC5)COC6)ccc4c3=O)c21 | 0.13 | – | – | –
14 | COc1ccc2c(=O)n(-c3ccc(Cl)c4c(NS(C)(=O)=O)nn(C)c34)c([C@H](Cc3cc(F)cc(F)c3)NC(=O)Cn3nc(C(F)F)c4c3C(F)(F)[C@@H]3C[C@H]43)nc2c1F | 0.13 | 11 | – | –
15 | Cn1nc(NS(C)(=O)=O)c2c(Cl)ccc(-n3c([C@H](Cc4cc(F)cc(F)c4)NC(=O)Cn4nc(C(F)F)c5c4C(F)(F)[C@@H]4C[C@H]54)nc4cc(N5CCOCC5)ccc4c3=O)c21 | 0.037 | 16 | – | –
16 | Cn1nc(NS(C)(=O)=O)c2c(Cl)ccc(-n3c([C@H](Cc4cc(F)cc(F)c4)NC(=O)Cn4nc(C(F)F)c5c4C(F)(F)[C@@H]4C[C@H]54)nc4cc(N5CCCOCC5)ccc4c3=O)c21 | 0.13 | – | – | –
17 | Cn1nc(NS(C)(=O)=O)c2c(Cl)ccc(-n3c([C@H](Cc4cc(F)cc(F)c4)NC(=O)Cn4nc(C(F)F)c5c4C(F)(F)[C@@H]4C[C@H]54)nc4cc(N5CC6(COC6)C5)ccc4c3=O)c21 | 0.064 | 18 | – | –
18 | COC1CCN(c2ccc3c(=O)n(-c4ccc(Cl)c5c(NS(C)(=O)=O)nn(C)c45)c([C@H](Cc4cc(F)cc(F)c4)NC(=O)Cn4nc(C(F)F)c5c4C(F)(F)[C@@H]4C[C@H]54)nc3c2)CC1 | 0.12 | – | – | –
19 | Cn1nc(NS(C)(=O)=O)c2c(Cl)ccc(-n3c([C@H](Cc4cc(F)cc(F)c4)NC(=O)Cn4nc(C(F)F)c5c4C(F)(F)[C@@H]4C[C@H]54)nc4cc(N5CCCCC5)ccc4c3=O)c21 | 0.27 | 11 | – | –

Row | SMILES | EC50 [1, 3] [nM] | clearance [2] [mL/min/kg] | EC50 ([1]; mt2) [nM] | CC50 (MT2) [nM]
20 | Cn1nc(NS(C)(=O)=O)c2c(Cl)ccc(-n3c([C@H](Cc4cc(F)cc(F)c4)NC(=O)Cn4nc(C(F)F)c5c4C(F)(F)[C@@H]4C[C@H]54)nc4cc(C(C)(F)F)ccc4c3=O)c21 | 0.078 | 2.8 | – | –
21 | Cn1nc(NS(C)(=O)=O)c2c(Cl)ccc(-n3c([C@H](Cc4cc(F)cc(F)c4)NC(=O)Cn4nc(C(F)F)c5c4C(F)(F)[C@@H]4C[C@H]54)nc4cc(N5CCC5)ccc4c3=O)c21 | 0.11 | – | – | –
22 | COc1cccc2nc([C@H](Cc3cc(F)cc(F)c3)NC(=O)Cn3nc(C(F)F)c4c3C(F)(F)[C@@H]3C[C@H]43)n(-c3ccc(Cl)c4c(NS(C)(=O)=O)nn(C)c34)c(=O)c12 (stereo in doubt; 13d) | – | – | 130 | > 1000
23 | Cn1nc(NS(C)(=O)=O)c2c(Cl)ccc(-n3c([C@H](Cc4cc(F)cc(F)c4)NC(=O)Cn4nc(C(F)F)c5c4C(F)(F)[C@@H]4C[C@H]54)nc4cc(C5CC5)ccc4c3=O)c21 | 0.14 | 4.3 | – | –
24 | Cn1nc(NS(C)(=O)=O)c2c(Cl)ccc(-n3c([C@H](Cc4cc(F)cc(F)c4)NC(=O)Cn4nc(C(F)F)c5c4C(F)(F)[C@@H]4C[C@H]54)nc4cc(N5CCCC5)ccc4c3=O)c21 | 0.23 | – | – | –
25 | Cn1nc(NS(C)(=O)=O)c2c(Cl)ccc(-n3c([C@H](Cc4cc(F)cc(F)c4)NC(=O)Cn4nc(C(F)F)c5c4C(F)(F)[C@@H]4C[C@H]54)nc4cc(N5C[C@H]6CC[C@@H](C5)O6)ccc4c3=O)c21 | 0.064 | – | – | –
26 | Cn1nc(NS(C)(=O)=O)c2c(Cl)ccc(-n3c([C@H](Cc4cc(F)cc(F)c4)NC(=O)Cn4nc(C(F)F)c5c4C(F)(F)[C@@H]4C[C@H]54)nc4cc(N5C6COCC5COC6)ccc4c3=O)c21 | 0.24 | – | – | –
27 | CO[C@@H]1CCN(c2ccc3c(=O)n(-c4ccc(Cl)c5c(NS(C)(=O)=O)nn(C)c45)c([C@H](Cc4cc(F)cc(F)c4)NC(=O)Cn4nc(C(F)F)c5c4C(F)(F)[C@@H]4C[C@H]54)nc3c2)C1 | 0.058 | – | – | –
28 | Cn1nc(NS(C)(=O)=O)c2c(Cl)ccc(-n3c([C@H](Cc4cc(F)cc(F)c4)NC(=O)Cn4nc(C(F)F)c5c4C(F)(F)[C@@H]4C[C@H]54)nc4cc(Cl)ccc4c3=O)c21 | 0.058 | – | – | –
29 | CN1CCN(c2ccc3c(=O)n(-c4ccc(Cl)c5c(NS(C)(=O)=O)nn(C)c45)c([C@H](Cc4cc(F)cc(F)c4)NC(=O)Cn4nc(C(F)F)c5c4C(F)(F)[C@@H]4C[C@H]54)nc3c2)CC1 | 0.15 | 60 | – | –
30 | Cn1nc(NS(C)(=O)=O)c2c(Cl)ccc(-n3c([C@H](Cc4cc(F)cc(F)c4)NC(=O)Cn4nc(C(F)F)c5c4C(F)(F)[C@@H]4C[C@H]54)nc4cc(C(C)(C)C)ccc4c3=O)c21 | 0.13 | 19 | – | –
31 | Cn1nc(NS(C)(=O)=O)c2c(Cl)ccc(-n3c([C@H](Cc4cc(F)cc(F)c4)NC(=O)Cn4nc(C(F)F)c5c4C(F)(F)[C@@H]4C[C@H]54)nc4cc(N5[C@@H]6CC[C@H]5COC6)ccc4c3=O)c21 | 0.057 | – | – | –
32 | Cn1nc(NS(C)(=O)=O)c2c(Cl)ccc(-n3c([C@H](Cc4cc(F)cc(F)c4)NC(=O)Cn4nc(C(F)F)c5c4C(F)(F)[C@@H]4C[C@H]54)nc4cc(F)ccc4c3=O)c21 | 0.041 | 40 | – | –
33 | CCN(CC)c1ccc2c(=O)n(-c3ccc(Cl)c4c(NS(C)(=O)=O)nn(C)c34)c([C@H](Cc3cc(F)cc(F)c3)NC(=O)Cn3nc(C(F)F)c4c3C(F)(F)[C@@H]3C[C@H]43)nc2c1 | 0.2 | – | – | –
34 | COc1ccc2nc([C@H](Cc3cc(F)cc(F)c3)NC(=O)Cn3nc(C(F)F)c4c3C(F)(F)[C@@H]3C[C@H]43)n(-c3ccc(Cl)c4c(NS(C)(=O)=O)nn(C)c34)c(=O)c2c1 (stereo in doubt; 13c) | – | – | 38 | –
35 | COc1ccc2c(=O)n(-c3ccc(Cl)c4c(NS(C)(=O)=O)nn(C)c34)c([C@H](Cc3cc(F)cc(F)c3)NC(=O)Cn3nc(C(F)F)c4c3C(F)(F)[C@@H]3C[C@H]43)nc2c1 (stereo in doubt; 13b) | – | – | 9.8 | > 1000
36 | C[C@@H]1CN(c2ccc3c(=O)n(-c4ccc(Cl)c5c(NS(C)(=O)=O)nn(C)c45)c([C@H](Cc4cc(F)cc(F)c4)NC(=O)Cn4nc(C(F)F)c5c4C(F)(F)[C@@H]4C[C@H]54)nc3c2)C[C@H](C)N1C | 0.091 | – | – | –
37 | Cn1nc(NS(C)(=O)=O)c2c(Cl)ccc(-n3c([C@H](Cc4cc(F)cc(F)c4)NC(=O)Cn4nc(C(F)F)c5c4C(F)(F)[C@@H]4C[C@H]54)nc4cc(C#N)ccc4c3=O)c21 | 0.017 | 82 | – | –
38 | Cn1nc(NS(C)(=O)=O)c2c(Cl)ccc(-n3c([C@H](Cc4cc(F)cc(F)c4)NC(=O)Cn4nc(C(F)F)c5c4C(F)(F)[C@@H]4C[C@H]54)nc4cc(S(C)(=O)=O)ccc4c3=O)c21 | 0.15 | 78 | – | –

— ChEMBL document CHEMBL5316333, “Potent Long-Acting Inhibitors Targeting the HIV-1 Capsid Based on a Versatile Quinazolin-4-one Scaffold” (J Med Chem, 2023)
